# Laboratory results reported in PMC3003168, “Preparation and In vitro / In vivo characterization of spray dried microsphere formulation encapsulating 4-chlorocurcumin” (Indian Journal of Pharmaceutical Sciences, 2010).
# Columns and labels:
# CCl4-treated rat model = experiment: Hepatoprotective activity in CCl4-treated rat model; type: in vivo, male Wistar rats; conditions: CCl4-treated rats
# Procedure: Hepatoprotective activity was determined for both the microsphere formulation and i.v. solution administration of 4-chlorocurcumin following a protocol reported previously. Another set of rats were used in this study. Male rats weighing around 150-200 g was used in this study. For this experiment, animals were divided into 6 different groups. Group I were normal control. Group II was given carbontetrachloride regularly and it served as toxic control. Group II received CCl4 at a dose of 0.7 ml/kg by intraperitonial route on the 3rd, 6th and 9th day consisting of mixture of CCl4 and olive oil (25:75). Group III received the drug in the solution form by i.v. route. Group III received 4-chlorocurcumin dissolved in PEG 600 solution at a rationale of 1 mg/ml by intravenous route twice daily. Group IV received 4-chlorocurcumin microsphere formulation one time in the beginning of the experiment. Microspheres 2 was administered for this purpose. A 20 mg of formulation was dispersed in 1 ml normal saline and was administered intraperitoneally. Group V were injected with placebo microspheres and Group VI served as a control for PEG injected and was injected 1 ml of PEG solution twice a day. Serum samples were procured from the blood samples collected from common carotid artery on the final day of experimentation prior to sacrifice of the animal. The blood samples collected were subjected to centrifugation for 15 min at 3000 rpm and the serum separated was transferred into fresh empty microcentrifuge tube and was stored in deep freeze for pharmacodynamic evaluation. Hepatoprotective activity was quantified by the activity of SGOT, SGPT levels present in the serum samples and the method used for quantification was modified IFFC method. Subsequently, livers of the all rats in each group were further sent for histopathological studies and for this purpose at the end of the study the rats were sacrificed, the livers were separated carefully and were transferred to sterile containers having formalin solution. Liver sections were subsequently prepared using a previously published method.
# [1] = Pharmacokinetics of 4-chlorocurcumin in rats; type: in vivo; conditions: male, Wistar, blood, iv; rat, i.v. solution, 2.8 mg
# Procedure: From the data of the release studies, a suitable microsphere formulation to be used further in the rat studies was selected. For in vivo characterization, in vivo drug release (pharmacokinetic study) and reduction in hepatoprotective activity in a CCl4-treated rat model were determined. Pharmacokinetics of the formulation was studied in male Wistar rats. After procurement of the rats, these were acclimatized for 10 days prior to the conduction of the experiment. Rats were injected one time with microsphere suspension containing 2.8 mg of active drug intraperitoneally. A 20 mg microsphere suspension was dispersed in 1 ml normal saline and was injected. Parallel to the microsphere administration, another dose of the drug in the form of solution was administered via i.v. route in another set of rats. In this case drug was administered at an equivalent dose of 2.8 mg. Blood was periodically collected from retroorbital sinus and assayed for the drug using a HPLC standard developed using a previously reported method. The mobile phase consisted of methanol:water at a ratio of 70:30. The retention times and the peak areas were noted. Extraction efficiency for the selected system was determined. The following possible pharmacokinetic parameters for both iv solution administration as well as ip microsphere administration were determined using WinNonlin: Ka, ke, Vd, elimination t1/2, absorption t1/2, Tmax, Cmax. Further, using Wagner-Nelson method cumulative amount of drug released into the plasma was determined.
# [2] = serum, final day, solution i.v. twice daily, microspheres 20 mg i.p. one time
smiles,measurement,setting,value
O=C(/C=C/c1ccc(Cl)cc1)CC(=O)/C=C/c1ccc(Cl)cc1 [4-chlorocurcumin],Hepatoprotective activity (reversal of SGOT and SGPT versus toxic control CCl4),CCl4-treated rat model,"although statistically significant, was not reduced to reach the normal levels"
same,Histology of liver,CCl4-treated rat model; end of study,Normal liver
same,SGOT,CCl4-treated rat model; [2],42.10±1.5 u/1
same,SGPT,CCl4-treated rat model; [2],25.7±1.8 u/1
same,Body weights on day 9,"CCl4-treated rat model; solution i.v. twice daily, microspheres 20 mg i.p. one time",190 ± 18 g
same,AUC,[1],227 µg·h/mL
same,Cmax,[1],196 µg/mL
same,Tmax,[1],0.5 h
same,Vd,[1],0.0235 L
same,clearance,[1],0.137 mL/min
same,half-life,[1],1.99 h
